Measurements: the supplement of paper PMC10307832

Legend:
Assay in all cases: relative viability (nuclei count vs DMSO), 5 days (fraction); higher = more cells survive
Lapatinib + Tozasertib = compound: CS(=O)(=O)CCNCc1ccc(-c2ccc3ncnc(Nc4ccc(OCc5cccc(F)c5)c(Cl)c4)c3c2)o1 [Lapatinib] + Cc1cc(Nc2cc(N3CCN(C)CC3)nc(Sc3ccc(NC(=O)C4CC4)cc3)n2)n[nH]1 [Tozasertib] (partner 0.1 µM)
Outline: (§1)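 Relative viability is defined as nuclei in treated wells over nuclei in vehicle wells. Duplicate plates were run and medians reported. Lung cancer cell lines in 1536-well plates were dosed by pin tool one day after seeding, with one drug or with a fixed anchor-drug dose plus five library-drug doses (not always all listed) in √10 steps, and nuclei were counted after 5 days.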

Wnt-C59 + Bortezomib = compound: CC1=NC=CC(=C1)C2=CC=C(C=C2)CC(=O)NC3=CC=C(C=C3)C4=CN=CC=C4 [Wnt-C59] + CC(C)C[C@H](NC(=O)[C@H](Cc1ccccc1)NC(=O)c1cnccn1)B(O)O [Bortezomib] (partner 0.002 µM)
Outline: as §1

Wnt-C59 + Luminespib = compound: CC1=NC=CC(=C1)C2=CC=C(C=C2)CC(=O)NC3=CC=C(C=C3)C4=CN=CC=C4 [Wnt-C59] + CCNC(=O)c1noc(-c2cc(C(C)C)c(O)cc2O)c1-c1ccc(CN2CCOCC2)cc1 [Luminespib] (partner 0.01 µM)
Outline: as §1

Wnt-C59 + Linsitinib = compound: CC1=NC=CC(=C1)C2=CC=C(C=C2)CC(=O)NC3=CC=C(C=C3)C4=CN=CC=C4 [Wnt-C59] + C[C@]1(O)C[C@@H](c2nc(-c3ccc4ccc(-c5ccccc5)nc4c3)c3c(N)nccn32)C1 [Linsitinib] (partner 1 µM)
Outline: as §1

Cell Line	relative viability (Lapatinib + Tozasertib; first compound 0.06325 µM)	relative viability (Lapatinib + Tozasertib; first compound 0.2 µM)	relative viability (Lapatinib + Tozasertib; first compound 0.6325 µM)	relative viability (Lapatinib + Tozasertib; first compound 2 µM)	relative viability (Wnt-C59 + Bortezomib; first compound 0.001 µM)	relative viability (Wnt-C59 + Bortezomib; first compound 0.01 µM)	relative viability (Wnt-C59 + Bortezomib; first compound 0.03162 µM)	relative viability (Wnt-C59 + Bortezomib; first compound 0.1 µM)	relative viability (Wnt-C59 + Luminespib; first compound 0.001 µM)	relative viability (Wnt-C59 + Luminespib; first compound 0.01 µM)	relative viability (Wnt-C59 + Luminespib; first compound 0.03162 µM)	relative viability (Wnt-C59 + Luminespib; first compound 0.1 µM)	relative viability (Wnt-C59 + Linsitinib; first compound 0.001 µM)	relative viability (Wnt-C59 + Linsitinib; first compound 0.01 µM)	relative viability (Wnt-C59 + Linsitinib; first compound 0.03162 µM)	relative viability (Wnt-C59 + Linsitinib; first compound 0.1 µM)	relative viability (Lapatinib + Tozasertib; first compound 0.02 µM)
NCI-H3122	0.366	0.479	0.341	0.349	0.998	0.972	1.04	0.958	0.0968	0.0872	0.0839	0.0884	1.04	0.931	1.02	1.02	
CAL-12T	0.274	0.333	0.273	0.122	0.979		0.875	1.14	0.397	0.307	0.592	0.571	0.759	0.752	0.776	0.766	
NCI-H1975	0.516	0.25	0.178	0.167	0.297	0.372	0.461	0.37	0.347	0.28	0.217	0.143	1.01	0.88	1.01	0.922	0.583
NCI-H2009	0.633	0.78	0.714	0.492	1.07	1.06	1.03	0.993	1.04	0.976	1.07	0.997	1.17	1.15	1.19	1.12	0.732
LC-2-ad	0.392	0.444	0.456	0.372	1.1	1.03	1.11	1.01	1.13	0.97	1.06	0.975	0.864	0.811	0.944	0.776	
NCI-H647	0.197	0.184	0.212	0.183	1.06	1.02	0.842	1.06	0.145	0.175	0.149	0.166	1.08	1.15	1.18	1.22	0.312
H3255	0.45	0.591	0.527	0.282	0.78	0.823	0.769	0.912	0.94	0.884	1.04	0.919	1.01	0.962	1.02	0.866	0.317
PC-14	0.604	0.638	0.551	0.356	0.949	0.9	0.903	0.733	0.178	0.166	0.144	0.16	0.936	1.04	0.958	0.944	
HOP-62	0.343	0.377	0.343	0.295	0.826	0.752	0.658	0.931	0.945	0.913	0.969	0.927	1.09	1.1	1.14	0.95	0.334
NCI-H2087	0.233	0.267	0.186	0.215	0.68	0.715	0.789	0.753	0.146	0.183	0.187	0.216	1.04	0.956	0.958	0.858	
NCI-H441	0.551	0.491	0.462	0.454	0.364	0.236	0.593	0.682	0.428	0.247	0.276	0.407	0.496	0.407	0.667	0.575	
NCI-H1755	0.583	0.559	0.483	0.486	0.974	0.88	0.929	0.948	0.549	0.534	0.407	0.644	0.979	0.954	0.983	0.984	0.549
EKVX	0.333	0.448	0.273	0.143	1	0.928	1.06	0.895	0.952	0.824	0.857	0.704	1.07	0.846	1.01	0.757	0.366
A-427	0.252	0.209	0.231	0.185	0.98	1.01	1	0.979	0.886	0.943	0.715	0.933	1.12	1.05	1.14	1.06	
NCI-H1993		0.574	0.518	0.486	1.14	1.12	1.21	1.2	0.862		0.948	0.365	0.703	0.811	0.699	0.799	0.518
NCI-H1651	0.622	0.508	0.443	0.325	0.928	0.985	0.97	0.913	0.864	0.862	0.97	0.835	1	0.9	1.02	0.852	0.541
LXF-289	0.155	0.177	0.173	0.168	0.969	0.965	0.99	1.02	0.607	0.666	0.618	0.712	0.99	0.933	1	0.918	0.178
NCI-H23		0.29	0.307	0.218	1.04	1.07	0.905	0.962	0.206	0.217	0.227	0.217	0.719	0.518	0.579	0.483	
LU99A	0.293	0.239	0.195	0.216	1.11	1.08	1.07	1.1	0.249	0.269	0.249	0.263	0.554	0.508	0.594	0.495	0.281

Cell Line	relative viability (Lapatinib + Tozasertib; first compound 0.06325 µM)	relative viability (Lapatinib + Tozasertib; first compound 0.2 µM)	relative viability (Lapatinib + Tozasertib; first compound 0.6325 µM)	relative viability (Lapatinib + Tozasertib; first compound 2 µM)	relative viability (Wnt-C59 + Bortezomib; first compound 0.001 µM)	relative viability (Wnt-C59 + Bortezomib; first compound 0.01 µM)	relative viability (Wnt-C59 + Bortezomib; first compound 0.03162 µM)	relative viability (Wnt-C59 + Bortezomib; first compound 0.1 µM)	relative viability (Wnt-C59 + Luminespib; first compound 0.001 µM)	relative viability (Wnt-C59 + Luminespib; first compound 0.01 µM)	relative viability (Wnt-C59 + Luminespib; first compound 0.03162 µM)	relative viability (Wnt-C59 + Luminespib; first compound 0.1 µM)	relative viability (Wnt-C59 + Linsitinib; first compound 0.001 µM)	relative viability (Wnt-C59 + Linsitinib; first compound 0.01 µM)	relative viability (Wnt-C59 + Linsitinib; first compound 0.03162 µM)	relative viability (Wnt-C59 + Linsitinib; first compound 0.1 µM)	relative viability (Lapatinib + Tozasertib; first compound 0.02 µM)
NCI-H2085	0.748	0.73	0.532	0.337	1.16	0.898	1.07	1.16	0.457	0.502	0.419	0.494	0.971	0.867	1.02	0.947	
NCI-H2126	0.664	0.844	0.712	0.547	1.12	1.09	1.11	1.11	0.83	1	0.991	0.892	0.755	0.7	0.723	0.701	
LCLC-103H	0.448	0.455	0.407	0.384	1.04	1.12	1.06	1.1	0.845	0.919	0.977	0.973	1.08	1.08	0.986	1.09	0.419
NCI-H2347	0.57	0.52	0.439	0.399	0.808	1.12	0.922	1.1	0.565	0.339	0.498	0.877	0.987	0.889	0.98	0.987	
NCI-H1437	0.411	0.378	0.347	0.367	0.576	0.433	0.551	0.395	1.21	1.07	1.17	1.05	1.01	1.01	1.04	1.01	0.388
LCLC-97TM1		0.214	0.229	0.176	0.608	0.878	0.761	0.919	0.756	0.763	0.616	0.742	0.182	0.171	0.176	0.156	
RERF-LC-KJ	0.425	0.436	0.413	0.337	1.07	1.05	1.22	1.21	1.2	1.38	1.23	1.18	0.914	0.79	0.908	0.85	0.525
HCC-827	0.418	0.414	0.412	0.144	1.05	1.14	0.97	1.05	0.7	0.693	0.645	0.698	1	0.966	0.977	0.884	0.41
SK-LU-1	0.306	0.3	0.29	0.235	1.15	1.23	1.28	1.45	0.211	0.219	0.184	0.206	1.01	1.12	1.07	1.03	0.32
COR-L 105	0.351	0.355	0.294	0.244	0.579	0.772	0.685	0.662	0.913	0.609	0.823	0.645	1.26	0.988	0.765	0.804	0.351
HARA	0.0893	0.0933	0.0794	0.119	1.1	1.01	1.19	1.15	0.662	0.557	0.721	0.65	1.02	0.865	1.16	0.899	
NCI-H460	0.298	0.0669	0.0896	0.06	0.934	1.06	1.14	1.1	0.0357	0.0331	0.0466	0.0312	0.789	0.809	0.869	0.7	0.0815
SW 1573	0.164	0.143	0.12	0.159	1.04	1.1	1.11	1.04	0.227	0.398	0.37	0.177	0.696	0.806	0.874	0.862	0.121
NCI-H2228	0.258	0.145	0.205	0.135	1.07	0.746	1.07	0.855	0.173	0.149	0.223	0.197	0.606	0.95	0.77	0.878	0.25
NCI-H520	0.393	0.41	0.543	0.405	0.596	0.611	0.509	0.57	0.212	0.212	0.231	0.212	0.944	0.912	1.1	0.843	0.511
ABC-1	0.187	0.156	0.155	0.16	0.266	0.171	0.33	0.306	1.18	0.807	0.736	0.598	0.909	0.759	0.774	0.702	0.155
HCC-44	0.622	0.81	0.762	0.725	0.948	0.886	0.903	0.887	1.18	1.2	0.897	0.997	0.745	0.641	0.665	0.644	
NCI-H2023		0.191	0.204	0.137	0.979	1.1	1.05	0.821	0.775	0.757	0.785	0.702	0.736	0.58	0.648	0.631	0.249
LOU-NH91	0.504	0.524	0.51	0.427	0.492	0.583	0.465	0.53	0.375	0.284	0.298	0.348	1.07	0.748	0.854	0.899	0.643
